In ChEMBL document CHEMBL3046781, “Resistance of Helicoverpa assulta (Guenée) (Lepidoptera: Noctuidae) to fenvalerate, phoxim and methomyl in China” (2009):

Assays:
Assay type in all cases: functional
Helicoverpa assulta [1] = assay: Insecticidal activity against sixth-instar larvae of Helicoverpa assulta GZ3 at 1.8 to 183360 mg/l after 48 hr by chi-squared analysis
Helicoverpa assulta [2] = assay: Insecticidal activity against sixth-instar larvae of Helicoverpa assulta GZ1 at 1.8 to 183360 mg/l after 48 hr by chi-squared analysis
Helicoverpa assulta [3] = assay: Insecticidal activity against sixth-instar larvae of Helicoverpa assulta YN5 at 1.8 to 183360 mg/l after 48 hr by chi-squared analysis
Helicoverpa assulta [4] = assay: Insecticidal activity against sixth-instar larvae of Helicoverpa assulta HN1 at 1.8 to 183360 mg/l after 48 hr by chi-squared analysis
Helicoverpa assulta [5] = assay: Insecticidal activity against sixth-instar larvae of Helicoverpa assulta HN1 at 21 to 3390 mg/l after 48 hr by chi-squared analysis
Helicoverpa assulta [6] = assay: Resistance factor, ratio of LD50 for sixth-instar larvae of Helicoverpa assulta GZ1 to LD50 for sixth-instar larvae of Helicoverpa assulta at 21 to 3390 mg/l
Helicoverpa assulta [7] = assay: Resistance factor, ratio of LD50 for sixth-instar larvae of Helicoverpa assulta AH2 to LD50 for sixth-instar larvae of Helicoverpa assulta at 21 to 3390 mg/l
Helicoverpa assulta [8] = assay: Insecticidal activity against sixth-instar larvae of Helicoverpa assulta YN8 at 21 to 3390 mg/l after 48 hr by chi-squared analysis
Helicoverpa assulta [9] = assay: Insecticidal activity against sixth-instar larvae of Helicoverpa assulta YN3 at 21 to 3390 mg/l after 48 hr by chi-squared analysis
Helicoverpa assulta [10] = assay: Insecticidal activity against sixth-instar larvae of Helicoverpa assulta GZ4 at 39 to 12630 mg/l after 48 hr by chi-squared analysis
Helicoverpa assulta [11] = assay: Insecticidal activity against sixth-instar larvae of Helicoverpa assulta GZ5 at 39 to 12630 mg/l after 48 hr by chi-squared analysis
Helicoverpa assulta [12] = assay: Resistance factor, ratio of LD50 for sixth-instar larvae of Helicoverpa assulta GZ2 to LD50 for sixth-instar larvae of Helicoverpa assulta at 39 to 12630 mg/l
Helicoverpa assulta [13] = assay: Resistance factor, ratio of LD50 for sixth-instar larvae of Helicoverpa assulta FJ2 to LD50 for sixth-instar larvae of Helicoverpa assulta at 39 to 12630 mg/l

CC(C)C(C(=O)OC(C#N)c1cccc(Oc2ccccc2)c1)c1ccc(Cl)cc1 (configuration not stated) [FENVALERATE]
LD90 (Helicoverpa assulta [1]): 725 µg/g
LD50 (Helicoverpa assulta [1]; Helicoverpa assulta, GZ3, 48 h): 133 mg/kg
LD90 (Helicoverpa assulta [2]): 1043 µg/g
LD50 (Helicoverpa assulta [2]; Helicoverpa assulta, GZ1, 48 h): 301 mg/kg
LD90 (Helicoverpa assulta [3]): 4567 µg/g
LD50 (Helicoverpa assulta [3]; Helicoverpa assulta, YN5, 48 h): 1430 mg/kg
LD90 (Helicoverpa assulta [4]): 23.1 µg/g
LD50 (Helicoverpa assulta [4]; Helicoverpa assulta, HN1, 48 h): 10.5 mg/kg

CNC(=O)ON=C(C)SC [METHOMYL]
LD90 (Helicoverpa assulta [5]): 34 µg/g
LD50 (Helicoverpa assulta [5]; Helicoverpa assulta, HN1, 48 h): 6.48 mg/kg
Ratio (Helicoverpa assulta [6]): 28.9
Ratio (Helicoverpa assulta [7]): 15.3
LD90 (Helicoverpa assulta [8]): 185 µg/g
LD50 (Helicoverpa assulta [8]; Helicoverpa assulta, YN8, 48 h): 33.3 mg/kg
LD90 (Helicoverpa assulta [9]): 78.5 µg/g
LD50 (Helicoverpa assulta [9]; Helicoverpa assulta, YN3, 48 h): 33.3 mg/kg

CCOP(=S)(OCC)O/N=C(\C#N)c1ccccc1 [PHOXIM]
LD90 (Helicoverpa assulta [10]): 51.7 µg/g
LD50 (Helicoverpa assulta [10]; Helicoverpa assulta, GZ4, 48 h): 18.4 mg/kg
LD90 (Helicoverpa assulta [11]): 33.7 µg/g
LD50 (Helicoverpa assulta [11]; Helicoverpa assulta, GZ5, 48 h): 16.6 mg/kg
Ratio (Helicoverpa assulta [12]): 10.8
Ratio (Helicoverpa assulta [13]): 9.41
